Key:
[1] = Equilibrium study: protonation constants of the ligands; type: physicochemical; settings: 25° C., 0.15M NaCl
Protocol: (§1) During the physico-chemical studies of BP2AM^Pyp and BP2AM^Pro compounds prepared according to Example 1 and 2, their protonation constants, as well as equilibrium behaviour and kinetic inertness of their Mn(II) complexes was studied in detail, and the characteristic relaxivity values of the complexes were determined in the presence and absence of HSA (Human Serum Albumin), at 25 and 37° C. and physiological pH. All studies were performed in the presence of 0.15 M NaCl, the same concentration as that of the electrolyte under physiological conditions.
(§2) The results of equilibrium study are summarized in Table 1, in addition to the protonation constants, total basicity of ligands and stability constants of their Mn(II) complexes, the pMn value calculated for complexes are also represented in the table.

[2] = Equilibrium study: stability constants of the Mn(II) complexes and calculated pMn; type: physicochemical; settings: 25° C., 0.15M NaCl; for pMn: calculated from equilibrium constants at pH = 7.4 and cMn = cL = 10^−5 M
Protocol: as §1, §2
Based on the pMn values presented in Table 1 (calculated using the equilibrium constants at pH=7.4 and cMn=cL=10^−5 M), it can be concluded that the studied Mn(II) complexes are formed in 100% at physiological pH, which is an essential aspect of the practical use.

[3] = literature values, stated as under the same conditions; cited from earlier work
[4] = cited from earlier work

Row | SMILES | logK1 (protonation constant) [1] | logK2 (protonation constant) [1] | logK3 (protonation constant) [1] | logK4 (protonation constant) [1] | ΣlogKi^H (total basicity) [1] | logKMnL (stability constant of Mn(II) complex) [2] | pMn [2] | r1 relaxivity [3] [mM⁻¹ s⁻¹] | Gd(III) ion released, calculated on the basis of experiments ([4]; 25° C.) [%] | Gd(III) ion released during in vivo dissociation ([4]; 37° C.) [%]
1 | O=C(O)C1CCCN1C(=O)CN1Cc2cccc(n2)CN(CC(=O)N2CCCC2C(=O)O)Cc2cccc(n2)C1 (stereo not shown) [BP2AM^Pro] | 8.83(1) | 3.89(2) | 3.05(2) | 2.39(2) | 18.16 | 11.47(5) | 7.51 |  |  | 
2 | O=C(CN1Cc2cccc(n2)CN(CC(=O)N2CCCCC2)Cc2cccc(n2)C1)N1CCCCC1 [BP2AM^Pyp, 2,11-bis[2-oxo-2-(piperidine-1-il)-ethyl]-2,11-diaza[3.3](2,6)-pyridinophane] | 9.57(2) | 2.99(2) |  |  | 12.56 | 13.58(1) | 8.19 |  |  | 
3 | CNC[C@H](O)[C@@H](O)[C@H](O)[C@H](O)CO.O=C([O-])CN1CCN(CC(=O)[O-])CCN(CC(=O)O)CCN(CC(=O)[O-])CC1.[Gd+3] [DOTAREM] |  |  |  |  |  |  |  | 3.83 |  | 
4 | CNC[C@H](O)[C@@H](O)[C@H](O)[C@H](O)CO.CNC[C@H](O)[C@@H](O)[C@H](O)[C@H](O)CO.O=C([O-])CN(CCN(CC(=O)[O-])CC(=O)O)CCN(CC(=O)[O-])CC(=O)O.[Gd+3] [MAGNEVIST] |  |  |  |  |  |  |  | 4.02 | 0.5 | 2.2

Source: US10968224B2, “2,11-diaza-[3.3](2,6)pyridinophane compounds and their application as ligands of essential metal ion based MRI contrast agents and 52MN based PET contrast agents” (DEBRECENI EGYETEM, priority 2015, dated 2021)
